A short description of this series: Two-component Cys-Cys stapling with divinyltriazine (DVT): double thia-Michael addition on recombinant StrepII-GB1-peptide-His8 fusions, stepwise linker addition (pseudo-dilution), DTT quench. As to conditions: the molecule shown is the open-chain precursor, PBS + 200 mM imidazole (2 mM linker stock in DMSO added stepwise), 0.02 mM, scale: 1 = stapled product confirmed by ESI-MS as.

On to “StrepII-GB1-...GSDP-ACGFSTASGKKLNVSCEALQKAVKLFSDIENIS-DPGS...-His8 (free Cys thiols, + DVT)”, for which the ring closure, product found (54-membered ring) was 1.
With “StrepII-GB1-...GSDP-SCFSTASGKKLNVSCEALQKAVKLFSDIENIS-DPGS...-His8 (free Cys thiols, + DVT)”, the ring closure, product found (51-membered ring) was 1.
As to “StrepII-GB1-...GSDP-SSACSGFSTASGKKLNVSTEACQKAVKLFSDIENIS-DPGS...-His8 (free Cys thiols, + DVT)”, the ring closure, product found (66-membered ring) is 1.
In the case of “StrepII-GB1-...GSDP-VNSSAFSGFSTASGKKLNVSCEALQKACKLFSDIENIS-DPGS...-His8 (free Cys thiols, + DVT)”, the ring closure, product found (33-membered ring) stood at 1.
As for “StrepII-GB1-...GSDP-VNSSAFSGFSTASGKKLNVSTEALQKACKLFSDIECIS-DPGS...-His8 (free Cys thiols, + DVT)”, the ring closure, product found (36-membered ring) stood at 1.

Source of the values: PMC10699557, “A recombinant approach for stapled peptide discovery yields inhibitors of the RAD51 recombinase” (Chemical Science, 2023).
